From PMC6148290, “Endogenous metabolites of vitamin E limit inflammation by targeting 5-lipoxygenase” (Nature Communications, 2018) come the findings set out here.

Read-outs that look alike come from different tables or passages of the source.

One series addresses T1, COX-1 (Homo sapiens, UniProt P23219).
T1 construct: Freshly isolated human platelets (1 × 10^8) were pre-incubated with LCMs; endogenous in cells; host or cells: washed human platelets
Nature of the series: COX-1 activity (12-HHT formation) in washed platelets. The format is cell-based. How it is done:
Freshly isolated human platelets (1 × 10^8) were pre-incubated with LCMs for 5 min at room temperature. Formation of COX-1-derived 12-HHT was initiated by addition of exogenous AA (5 µM).

In series [1] the target is T2, human recombinant soluble epoxide hydrolase (sEH) (Homo sapiens, UniProt P34913).
T2 construct: made in house; host or cells: Sf9 insect cells (recombinant baculovirus)
T2 sequence (P34913 1-555): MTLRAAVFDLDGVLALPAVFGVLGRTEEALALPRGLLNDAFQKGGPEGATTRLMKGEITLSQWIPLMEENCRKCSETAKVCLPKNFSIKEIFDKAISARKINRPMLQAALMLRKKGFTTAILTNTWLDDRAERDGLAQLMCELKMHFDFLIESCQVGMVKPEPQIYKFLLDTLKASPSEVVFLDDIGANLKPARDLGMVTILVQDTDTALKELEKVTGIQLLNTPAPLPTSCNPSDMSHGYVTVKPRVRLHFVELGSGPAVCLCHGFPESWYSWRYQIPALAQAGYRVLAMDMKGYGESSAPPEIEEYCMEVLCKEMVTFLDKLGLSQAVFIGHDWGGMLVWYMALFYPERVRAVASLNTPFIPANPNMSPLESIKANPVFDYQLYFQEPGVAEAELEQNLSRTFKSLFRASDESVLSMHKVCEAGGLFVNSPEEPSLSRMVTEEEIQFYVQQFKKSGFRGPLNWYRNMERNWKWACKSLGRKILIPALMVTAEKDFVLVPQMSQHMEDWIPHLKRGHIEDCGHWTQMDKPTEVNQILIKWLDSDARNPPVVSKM
Nature of the series: sEH activity. Format: biochemical. How it is done:
To investigate the effect of LCMs on sEH activity, we purified the human recombinant enzyme from sEH expressing Sf9 insect cells by benzylthio-sepharose affinity chromatography. […] The purified enzyme (60 ng) was diluted in 25 mM Tris HCl, pH 7 plus 0.1 mg/ml BSA and pre-incubated with LCMs for 10 min at room temperature. The enzymatic reaction was started by addition of PHOME (50 µM, Cayman Chemicals), which was converted to the fluorescent 6-methoxy-naphtaldehyde.

Series [2] in a line: LCM concentrations in plasma and peritoneal exudate of mice with peritonitis (UPLC-MS/MS). The format is in vivo. Particulars: CD-1, mouse; for concentration at 240 min: ip, 10 mg/kg i.p., 240 min post zymosan. The procedure: Mice were killed by inhalation of CO2 after another 30 min for determination of LTC4 levels and vascular permeability and after 4 h for the analysis of LTB4 levels, lipidomic profiles and immune cell infiltration. Cell infiltration and lipid mediator profiles during resolution were studied after 18 h. Peritoneal exudates were collected and cells counted after vital trypan blue staining. LTC4, LTB4, and PGE2 were analyzed in the exudate by enzyme immunoassays (Enzo Life Sciences, Lörrach, Germany) according to manufacturer's instructions. To assess vascular permeability, Evans blue dye (40 mg/kg in saline, 0.3 ml; Sigma-Aldrich) was injected into the tail vain immediately before the induction of peritonitis. Exudates were centrifuged (3000 × g, 5 min) and the absorbance of the supernatants was measured at 610 nm using a Beckman Coulter DU730 spectrophotometer. To investigate the effect of α-T (1a) on the accumulation of α-T-13'-COOH (4a) in infiltrated leukocytes after peritonitis has been established, vehicle or α-[…].) were given 1 h before and/or 4 h post zymosan injection, and mice were killed after another 1.5 h. Leukocytes were obtained from peritoneal exudates by centrifugation (1200 × g, 10 min, 4 °C). Lipids, including LCMs, were extracted from PMNL, murine peritoneal exudates or murine plasma by successive addition of PBS pH 7.4, methanol, chloroform and saline (final ratio: 14:34:35:17)[68]. […] Multiple reaction monitoring was used to detect LCMs in the negative ion mode. The precursor-to-product ion transitions were selected according to Jiang et al.[69] and are listed in Supplementary Table 3. The ion spray voltage was set to -4500 V, the heated capillary temperature to 450 °C, the sheath gas pressure to 50 psi, the auxiliary gas pressure to 40 psi, and the declustering potential to 80 eV (for Ts) or 110 eV (for TEs). Collision energies and lower limits of quantitation are listed in Supplementary Table 3.

In a further series the test system is OVA-sensitized mice. Nature of the series: Airway hyper-reactivity in OVA-sensitized mice. The format is in vivo, mouse. The settings on record: 10 mg/kg i.p. at days 0 and 7; day 21. The procedure: BALB/c mice were sensitized to OVA, and bronchial reactivity and pulmonary LTC4 levels were measured. On days 0 and 7, α-T-13′-COOH (4a; 10 mg/kg, i.p.) or vehicle (4% DMSO in saline; 0.5 ml) were administered 30 min before injection of OVA (100 µg; Sigma Aldrich) which was adsorbed to aluminum hydroxide gel (3.3 mg; Sigma Aldrich). Mice were sacrificed on day 21, and bronchi were collected. Bronchial rings of 1–2 mm length were cut and placed in organ baths mounted to isometric force transducers (Type 7006, AD Instruments, Ugo Basile, Comerio, Italy) and connected to a Powerlab 800 (AD Instruments). Rings were initially stretched until a resting tension of 0.5 g was reached and allowed to equilibrate for at least 30 min. In each experiment, bronchial rings were challenged with carbachol (10^−6 M) until the response was reproducible. Bronchial reactivity was then assessed from a cumulative concentration–response curve to carbachol (1 × 10^−8 − 3 × 10^−5 M). To determine pulmonary LTC4 levels, lungs were isolated and homogenized in PBS pH 7.4 (100 mg tissue/ml) prior to detection of LTC4 by enzyme immunoassay (Cayman Chemicals).

T1 sequence (P23219 24-599): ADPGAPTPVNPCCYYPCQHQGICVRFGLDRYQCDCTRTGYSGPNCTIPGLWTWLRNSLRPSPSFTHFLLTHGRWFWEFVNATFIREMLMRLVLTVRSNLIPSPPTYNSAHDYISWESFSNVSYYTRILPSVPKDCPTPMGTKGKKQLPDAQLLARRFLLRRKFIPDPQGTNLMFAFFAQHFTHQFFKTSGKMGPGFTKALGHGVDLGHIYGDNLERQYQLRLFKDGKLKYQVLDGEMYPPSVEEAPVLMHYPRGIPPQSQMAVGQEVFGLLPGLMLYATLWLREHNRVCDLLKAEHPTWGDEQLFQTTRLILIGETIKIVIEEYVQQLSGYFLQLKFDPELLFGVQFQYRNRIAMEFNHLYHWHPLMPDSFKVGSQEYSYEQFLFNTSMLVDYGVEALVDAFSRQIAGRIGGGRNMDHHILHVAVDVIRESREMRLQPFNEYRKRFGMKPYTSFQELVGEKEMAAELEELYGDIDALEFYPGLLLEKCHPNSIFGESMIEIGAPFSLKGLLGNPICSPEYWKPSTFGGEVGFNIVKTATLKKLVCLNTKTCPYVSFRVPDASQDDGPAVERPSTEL

Regarding `Cc1c(C)c2c(c(C)c1O)CC[C@@](C)(CCCC(C)CCCC(C)CCCC(C)C(=O)O)O2` (stereo partly drawn) [4a, 13-((2R)-6-hydroxy-2,5,7,8-tetramethylchroman-2-yl)-2,6,10-trimethyltridecanoic acid], the IC50 against COX-1 was 6.9 µM; in series [1], greater than 10 µM. For the same molecule, in series [2] (peritoneal exudate, endogenous, 30 min post zymosan injection, read-out: α-T-13′-COOH (4a) concentration in peritoneal exudate), the concentration at 30 min is no more than 200 nM. The concentration at 240 min in series [2] (peritoneal exudate, read-out: α-T-13′-COOH (4a) concentration in peritoneal exudate) amounted to 3900 nM; in series [2] (plasma, read-out: α-T-13′-COOH (4a) concentration in plasma) it was 1400 nM. Besides, the “OVA-induced bronchial hyper-reactivity to carbachol” value in the series with OVA-sensitized mice is reported as “significantly inhibited”. Also, in the series with OVA-sensitized mice, the “pulmonary LTC4 levels” value is listed as “lowered pulmonary LTC4 to basal levels”.
